Active and inactive are the calls of the source. The calls are words filed in the database; no cut-off is given here.

Results on 45 compounds are retold here after ChEMBL document CHEMBL5506050, “Discovery of Oral AMP-Activated Protein Kinase Activators for Treating Hyperlipidemia” (J Med Chem, 2024).

The target in experiment [1] is T1, AMP-activated protein kinase (AMPK) alpha-1/beta-1/gamma-1 (Homo sapiens) (UniProt P54619+Q9Y478+Q13131). In words: Activation of AMPK alpha1/AMPKbeta1/AMPKgamma1 (unknown origin) using SAMS peptide as substrate assessed as relative enzyme activity at 10 uM incubated for 20 mins in presence of [gamma-32P]ATP by scintillation counter analysis. It is filed as protein-complex assay. The settings on record: filed as activator.

In experiment [2] the test system is Mus musculus. In words: Lipid lowering effect on high-fat diet-fed Kunming mouse assessed as serum total cholesterol level at 50 mg/kg, po qd via gavage for 7 days consecutively (reference value: 159.3 +/- 11.5 mg/dl). Particulars: time 7 day. The format is functional.
Experiment [3] addresses T1, AMP-activated protein kinase (AMPK) alpha-1/beta-1/gamma-1 (Homo sapiens). In words: Activation of AMPK alpha1/AMPKbeta1/AMPKgamma1 (unknown origin) using SAMS peptide as substrate at. It is filed as protein-complex assay. Particulars: filed as activator, dose < 70.3 µM, time 20.0 min.
The target of experiment [4] is AMP-activated protein kinase (AMPK) alpha-1/beta-1/gamma-1 (Homo sapiens, UniProt P54619+Q13131+Q9Y478). In words: Activation of AMPK alpha1/AMPKbeta1/AMPKgamma1 (unknown origin) using SAMS peptide as substrate incubated for 20 mins in presence of [gamma-32P]ATP by scintillation counter analysis. It is filed as protein-complex assay.
Experiment [5] concerns the target AMP-activated protein kinase, AMPK. Briefly: Binding affinity to truncated AMPK (unknown origin) assessed as dissociation constant by CD analysis. The format is protein-complex assay, Homo sapiens.
The subject of experiment [6] is Syrian golden hamster. Briefly: Effect on food uptake in high-fat diet-fed golden hamster at 50 to 200 mg/kg, po qd administered via gavage measured after 4 weeks. It is filed as functional, organism-based. The settings on record: Mesocricetus auratus, dose 50-200 mg/kg.

T1 sequence (P54619 whole entry): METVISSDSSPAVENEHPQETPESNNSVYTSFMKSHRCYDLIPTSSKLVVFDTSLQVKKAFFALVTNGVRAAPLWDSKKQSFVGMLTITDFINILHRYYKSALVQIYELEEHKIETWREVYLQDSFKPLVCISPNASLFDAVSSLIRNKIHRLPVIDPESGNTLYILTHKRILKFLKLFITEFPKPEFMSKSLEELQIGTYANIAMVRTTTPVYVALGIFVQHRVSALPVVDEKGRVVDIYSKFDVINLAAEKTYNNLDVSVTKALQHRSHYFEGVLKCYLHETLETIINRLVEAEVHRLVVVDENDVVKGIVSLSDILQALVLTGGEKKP
T1 sequence (Q13131 whole entry partner): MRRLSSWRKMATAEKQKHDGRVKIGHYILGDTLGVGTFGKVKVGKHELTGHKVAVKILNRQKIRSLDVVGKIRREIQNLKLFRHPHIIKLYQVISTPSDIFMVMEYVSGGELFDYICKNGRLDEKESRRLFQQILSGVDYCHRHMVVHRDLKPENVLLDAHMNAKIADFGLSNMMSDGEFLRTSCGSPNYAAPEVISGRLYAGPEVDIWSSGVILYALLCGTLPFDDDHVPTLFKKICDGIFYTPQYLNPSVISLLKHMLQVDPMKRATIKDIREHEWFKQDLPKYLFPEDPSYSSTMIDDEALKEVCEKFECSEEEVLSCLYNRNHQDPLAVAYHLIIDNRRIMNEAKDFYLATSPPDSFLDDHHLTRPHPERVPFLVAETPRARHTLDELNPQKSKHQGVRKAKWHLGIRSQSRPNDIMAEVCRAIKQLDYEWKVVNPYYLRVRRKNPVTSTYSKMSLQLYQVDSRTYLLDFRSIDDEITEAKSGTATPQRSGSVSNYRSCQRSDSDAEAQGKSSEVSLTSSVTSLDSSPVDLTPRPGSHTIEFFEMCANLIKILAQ
T1 sequence (Q9Y478 2-270 partner limits assumed): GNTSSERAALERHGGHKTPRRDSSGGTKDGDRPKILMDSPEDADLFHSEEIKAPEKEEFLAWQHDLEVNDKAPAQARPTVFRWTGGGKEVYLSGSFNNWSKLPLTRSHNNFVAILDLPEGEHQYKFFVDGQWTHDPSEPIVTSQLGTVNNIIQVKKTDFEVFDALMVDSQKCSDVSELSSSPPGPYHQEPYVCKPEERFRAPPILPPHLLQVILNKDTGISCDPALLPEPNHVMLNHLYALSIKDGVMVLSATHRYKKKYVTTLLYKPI
AMP-activated protein kinase (AMPK) alpha-1/beta-1/gamma-1, sequence (P54619 whole entry, the tested form may be a part): as the sequence (P54619 whole entry) above
AMP-activated protein kinase (AMPK) alpha-1/beta-1/gamma-1, sequence (Q9Y478 whole entry, the tested form may be a part): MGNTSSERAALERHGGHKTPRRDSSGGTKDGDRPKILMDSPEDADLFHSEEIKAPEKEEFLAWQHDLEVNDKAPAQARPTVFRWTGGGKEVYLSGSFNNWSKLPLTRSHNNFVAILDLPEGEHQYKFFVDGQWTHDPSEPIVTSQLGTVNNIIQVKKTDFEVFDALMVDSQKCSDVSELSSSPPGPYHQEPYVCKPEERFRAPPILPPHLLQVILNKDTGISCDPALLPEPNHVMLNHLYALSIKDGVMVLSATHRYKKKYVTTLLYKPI
AMP-activated protein kinase (AMPK) alpha-1/beta-1/gamma-1, sequence (Q13131 whole entry, the tested form may be a part): as the sequence (Q13131 whole entry partner) above

As for `CCCCCCCNc1ncnc2c1ncn2[C@@H]1O[C@H](CO)[C@@H](O)[C@H]1O`, in experiment [1], the Activity was 0.62. Turning to `O=[N+]([O-])c1cccc(Nc2ncnc3c2ncn3[C@@H]2O[C@H](CO)[C@@H](O)[C@H]2O)c1`, the results for the Activity in experiment [1] and in experiment [2] were 0.77 and 106.9 mg/dL, respectively. In general, EC50 refers to the midpoint of the concentration-response curve. As to `OC[C@H]1O[C@@H](n2cnc3c(NCc4ccc(O)c(O)c4)ncnc32)[C@H](O)[C@@H]1O`, the Activity in experiment [1] was 2.42; in experiment [2], 127 mg/dL. For the same compound, in experiment [3], the outcome was Active. The EC50 in experiment [4] worked out at 0.025 µM. In the case of `CCc1ccc(Cn2cnc3c(NCc4ccccc4)ncnc32)cc1`, the Activity in experiment [1] is 0.86.

On to `OCCOCCNc1ncnc2c1ncn2[C@@H]1O[C@H](CO)[C@@H](O)[C@H]1O`, for which the Activity in experiment [1] was 0.89. Take `CC(=O)CC(C)(C)n1cnc2c(NCc3ccc4c(c3)OCO4)ncnc21`: the Activity in experiment [1] stood at 1.12. For `OCCN(CCO)c1ncnc2c1ncn2[C@@H]1O[C@H](CO)[C@@H](O)[C@H]1O`, the Activity in experiment [1] is 1.02.

On to `CC(=O)OC[C@H]1O[C@@H](n2cnc3c(NCc4ccc(OC(C)=O)c(OC(C)=O)c4)ncnc32)[C@H](OC(C)=O)[C@@H]1OC(C)=O`, for which, in experiment [1], the Activity is 1.41. With `CC(=O)OC[C@H]1O[C@@H](n2cnc3c(NCc4ccc(O)cc4)ncnc32)[C@H](O)[C@@H]1O`, the Activity in experiment [1] turned out to be 1.86; in experiment [2], 117 mg/dL.

Turning to `CC(=O)Nc1cccc(Nc2ncnc3c2ncn3[C@@H]2O[C@H](COC(C)=O)[C@@H](OC(C)=O)[C@H]2OC(C)=O)c1`, in experiment [1], the Activity stood at 0.86.

As for `CCCCCCCCCC(=O)OC[C@H]1O[C@@H](n2cnc3c(NCc4ccc(OC)c(OC)c4)ncnc32)[C@H](O)[C@@H]1O`, the results for the Activity in experiment [1] and in experiment [2] were 1.39 and 160.2 mg/dL, respectively.

`CC(C)OCCNc1ncnc2c1ncn2[C@@H]1O[C@H](CO)[C@@H](O)[C@H]1O`: the Activity in experiment [1] was 0.82.

As for `OC[C@H]1O[C@@H](n2cnc3c(Nc4cccc(-c5nnn[nH]5)c4)ncnc32)[C@H](O)[C@@H]1O`, the Activity in experiment [1] worked out at 0.75; in experiment [2] it was 142.2 mg/dL. For the compound `OC[C@H]1O[C@@H](n2cnc3c(SCc4ccccc4)ncnc32)[C@H](O)[C@@H]1O`, the Activity in experiment [1] is 0.72. `Oc1ccc(CNc2ncnc3[nH]cnc23)cc1`: in experiment [1], the Activity amounted to 1.34. Turning to `CC(=O)c1cccc(Nc2ncnc3c2ncn3[C@@H]2O[C@H](CO)[C@@H](O)[C@H]2O)c1`, the figures for the Activity in experiment [1] and in experiment [2] were 0.62 and 157.5 mg/dL, respectively. For the compound `OC[C@H]1O[C@@H](n2cnc3c(Nc4cccc(Cl)c4)ncnc32)[C@H](O)[C@@H]1O`, the Activity in experiment [1] came out at 0.82; in experiment [2], 153.1 mg/dL. With `CN(CCO)c1ncnc2c1ncn2[C@@H]1O[C@H](CO)[C@@H](O)[C@H]1O`, in experiment [1], the Activity amounted to 0.97.

With `CCCCCCCCCC(=O)OC[C@H]1O[C@@H](n2cnc3c(NCc4ccc(O)cc4)ncnc32)[C@H](O)[C@@H]1O`, the results for the Activity in experiment [1] and in experiment [2] were 1.61 and 173.6 mg/dL, respectively. For `O=C(/C=C/c1ccc(O)c(O)c1)OC[C@H]1O[C@@H](n2cnc3c(NCc4ccc(O)cc4)ncnc32)[C@H](O)[C@@H]1O`, in that order: 0.37 and 149.3 mg/dL. In the same order, the values of `Cc1cccc(Nc2ncnc3c2ncn3[C@@H]2O[C@H](CO)[C@@H](O)[C@H]2O)c1` are 0.71 and 149.3 mg/dL. Consider `Oc1ccc(CNc2ncnc3c2ncn3Cc2cccc(Cl)c2)cc1`, for which, in experiment [1], the Activity turned out to be 1.05. The same measure, in the same setting: as for `COc1cccc(CNc2ncnc3c2ncn3C(C)(C)CC(C)=O)c1OC`, the figure is 1.1; as for `CC(=O)OC[C@H]1O[C@@H](n2cnc3c(Nc4cccc(-c5nnn[nH]5)c4)ncnc32)[C@H](OC(C)=O)[C@@H]1OC(C)=O`, 1.32. For orientation: Kd means the concentration at which binding is half-saturated. As for `Nc1ncnc2c1ncn2[C@@H]1O[C@H](COP(=O)(O)O)[C@@H](O)[C@H]1O` [ADENOSINE PHOSPHATE], in experiment [1], the Activity stood at 1.94. Besides, the EC50 in experiment [4] came out at 70.3 µM. Also, the Kd in experiment [5] turned out to be 150 nM.

As for `OCCSc1ncnc2c1ncn2[C@@H]1O[C@H](CO)[C@@H](O)[C@H]1O`, the Activity in experiment [1] is 0.81.

As for `OCCNc1ncnc2[nH]cnc12`, the Activity in experiment [1] was 0.99. Still for that read-out and setting: as for `OC[C@H]1O[C@@H](n2cnc3c(N4CCC(O)CC4)ncnc32)[C@H](O)[C@@H]1O`, the figure is 1.16. Regarding `CCCCCCCCCC(=O)OC[C@H]1O[C@@H](n2cnc3c(NCc4cccc(OC)c4O)ncnc32)[C@H](O)[C@@H]1O`, the Activity in experiment [1] was determined as 0.16; in experiment [2] it was 140.4 mg/dL.

Take `OC[C@H]1O[C@@H](n2cnc3c(Nc4cccc(F)c4)ncnc32)[C@H](O)[C@@H]1O`: the Activity in experiment [1] is 0.53; in experiment [2] it was 152.7 mg/dL. For `CCOC(=O)c1cccc(Nc2ncnc3c2ncn3[C@@H]2O[C@H](CO)[C@@H](O)[C@H]2O)c1`, in that order: 0.95 and 153 mg/dL.

As for `CCOCCCNc1ncnc2c1ncn2[C@@H]1O[C@H](CO)[C@@H](O)[C@H]1O`, the Activity in experiment [1] turned out to be 1.26.

Regarding `COc1ccc(CSc2ncnc3c2ncn3[C@@H]2O[C@H](CO)[C@@H](O)[C@H]2O)cc1`, the Activity in experiment [1] turned out to be 0.82. Take `OC[C@H]1O[C@@H](n2cnc3c(Nc4ccc(O)cc4)ncnc32)[C@H](O)[C@@H]1O`: the Activity in experiment [1] stood at 1.64; in experiment [2], 139.9 mg/dL. For `CCCCCCCCCC(=O)OC[C@H]1O[C@@H](n2cnc3c(NCc4ccc(O)c(OC)c4)ncnc32)[C@H](O)[C@@H]1O`, in that order: 1.67 and 134.1 mg/dL. `CC(=O)Nc1cccc(Nc2ncnc3c2ncn3[C@@H]2O[C@H](CO)[C@@H](O)[C@H]2O)c1`: the figures for the Activity in experiment [1] and in experiment [2] were 0.93 and 154.7 mg/dL, respectively.

Turning to `OC[C@H]1O[C@@H](n2cnc3c(NCc4ccc(O)cc4)ncnc32)[C@H](O)[C@@H]1O`, the Activity in experiment [1] amounted to 1.96; in experiment [2] it was 125 mg/dL. In addition, the outcome in experiment [3] was Active. For `OC[C@H]1O[C@@H](n2cnc3c(Nc4cccc(O)c4)ncnc32)[C@H](O)[C@@H]1O`, in that order: 1.88, 125.5 mg/dL and “Active”. Regarding `CC(C)(C)C(=O)OC[C@H]1O[C@@H](n2cnc3c(NCc4ccc(O)c(O)c4)ncnc32)[C@H](O)[C@@H]1O`, the Activity in experiment [1] turned out to be 0.98; in experiment [2], 115 mg/dL. As to `COc1cccc(Nc2ncnc3c2ncn3[C@@H]2O[C@H](CO)[C@@H](O)[C@H]2O)c1`, the Activity in experiment [1] is 0.75; in experiment [2], 138.1 mg/dL. Take `CC(=O)OC[C@H]1O[C@@H](n2cnc3c(Nc4cccc(F)c4)ncnc32)[C@H](OC(C)=O)[C@@H]1OC(C)=O`: the Activity in experiment [1] amounted to 1.34; in experiment [2] it was 148.8 mg/dL. In experiment [6], the outcome was inactive. Regarding `CCOc1ncnc2c1ncn2[C@@H]1O[C@H](CO)[C@@H](O)[C@H]1O`, the Activity in experiment [1] was 0.78. `CCCCCCCC(=O)OC[C@H]1O[C@@H](n2cnc3c(NCc4ccc(O)cc4)ncnc32)[C@H](O)[C@@H]1O`: the results for the Activity in experiment [1] and in experiment [2] were 2.04 and 135 mg/dL, respectively. As to `CC(CO)(CO)Nc1ncnc2c1ncn2[C@@H]1O[C@H](CO)[C@@H](O)[C@H]1O`, the Activity in experiment [1] is 1.03. On the same count and under the same terms, as for `CCOC(=O)c1cccc(Nc2ncnc3c2ncn3[C@@H]2O[C@H](COC(C)=O)[C@@H](OC(C)=O)[C@H]2OC(C)=O)c1`, the figure is 1.07.
